Results from patent US20240158446A1, “CYCLIC COMPOUND HAVING SELECTIVE INHIBITORY ACTION ON KRAS OVER HRAS AND NRAS” (CHUGAI SEIYAKU KABUSHIKI KAISHA, priority 2021, published 2024).
pKd: −log10 of the molar value.

Assays:
[1] = molecular target: GDP-bound KRAS wild-type protein (Homo sapiens, UniProt P01116); experiment: Binding to KRAS by surface plasmon resonance (SPR), Single Cycle Kinetics; conditions: SPR Single Cycle Kinetics, GDP-bound KRAS wild-type protein, 1:1 binding model; read-out: KRAS KD
[2] = molecular target: GDP-bound NRAS wild-type protein (Homo sapiens, UniProt P01111); experiment: Binding to NRAS by surface plasmon resonance (SPR), Single Cycle Kinetics; conditions: SPR, GDP-bound NRAS wild-type protein vs GDP-bound KRAS wild-type protein
[3] = molecular target: GDP-bound HRAS wild-type protein (Homo sapiens, UniProt P01112); experiment: Binding to HRAS by surface plasmon resonance (SPR), Single Cycle Kinetics; conditions: SPR, GDP-bound HRAS wild-type protein vs GDP-bound KRAS wild-type protein
Chain of GDP-bound HRAS wild-type protein (P01112 whole entry): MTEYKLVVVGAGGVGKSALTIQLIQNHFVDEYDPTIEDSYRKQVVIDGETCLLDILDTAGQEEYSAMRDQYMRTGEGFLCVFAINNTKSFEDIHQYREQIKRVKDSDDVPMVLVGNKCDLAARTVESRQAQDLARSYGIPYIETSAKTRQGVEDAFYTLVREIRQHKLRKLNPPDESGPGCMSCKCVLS

Chain of GDP-bound KRAS wild-type protein (P01116 whole entry): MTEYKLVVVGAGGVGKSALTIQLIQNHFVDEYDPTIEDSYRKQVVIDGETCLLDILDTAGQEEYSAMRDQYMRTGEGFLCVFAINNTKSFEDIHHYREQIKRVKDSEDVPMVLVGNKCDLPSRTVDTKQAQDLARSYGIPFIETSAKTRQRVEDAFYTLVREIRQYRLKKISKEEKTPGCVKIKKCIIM
Chain of GDP-bound NRAS wild-type protein (P01111 whole entry): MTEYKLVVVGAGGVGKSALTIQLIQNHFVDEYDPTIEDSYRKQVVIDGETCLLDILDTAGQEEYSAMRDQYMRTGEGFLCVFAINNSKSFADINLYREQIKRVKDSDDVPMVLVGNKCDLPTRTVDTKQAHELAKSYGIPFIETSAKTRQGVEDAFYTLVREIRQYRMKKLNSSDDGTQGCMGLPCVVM

| Structure (SMILES) | pKd [1] | NRAS/KRAS (ratio of KD value with respect to NRAS to KD value with respect to KRAS) [2] | HRAS/KRAS (ratio of KD value with respect to HRAS to KD value with respect to KRAS) [3] |
| --- | --- | --- | --- |
| CCO[C@@H]1C[C@H]2C(=O)NC3(CCC3)C(=O)N(C)[C@@H](C3CCCC3)C(=O)N(CC)[C@H](C(=O)N3CCOCC3)CC(=O)N(C)[C@@H](CC(C)C)C(=O)N[C@@H]([C@@H](C)CC)C(=O)N(C)CC(=O)N(C)[C@H]3CCCCN(C3=O)[C@@H](Cc3ccc(C(F)(F)F)cc3)C(=O)N(C)CC(=O)N[C@@H](CCc3cc(F)c(C(F)(F)F)c(F)c3)C(=O)N2C1 [PP0648] | 9.68 | B (a compound having 3 or more and less than 10 is denoted as B) | B (a compound having 3 or more and less than 10 is denoted as B) |
| CCCN1C(=O)[C@H](C2CCCC2)N(C)C(=O)C2(CCC2)NC(=O)[C@@H]2C[C@@H](OCC)CN2C(=O)[C@H](CCc2cc(F)c(C(F)(F)F)c(F)c2)NC(=O)CN(C)C(=O)[C@H](Cc2ccc(C(F)(F)F)cc2)N2CCCC[C@@H](C2=O)N(C)C(=O)CN(C)C(=O)[C@H]([C@@H](C)CC)NC(=O)[C@H](CC(C)C)N(C)C(=O)C[C@H]1C(=O)N1CCOCC1 [PP0649] | 9.12 | C (A compound having a KD ratio of 0.1 or more and less than 3 is denoted as C) | B (a compound having 3 or more and less than 10 is denoted as B) |
| CCO[C@@H]1C[C@H]2C(=O)NC3(CCC3)C(=O)N(C)[C@@H](C3CCCC3)C(=O)N(CCC3CCC3)[C@H](C(=O)N3CCOCC3)CC(=O)N(C)[C@@H](CC(C)C)C(=O)N[C@@H]([C@@H](C)CC)C(=O)N(C)CC(=O)N(C)[C@H]3CCCCN(C3=O)[C@@H](Cc3ccc(C(F)(F)F)cc3)C(=O)N(C)CC(=O)N[C@@H](CCc3cc(F)c(C(F)(F)F)c(F)c3)C(=O)N2C1 [PP0650] | 9.21 | C (A compound having a KD ratio of 0.1 or more and less than 3 is denoted as C) | B (a compound having 3 or more and less than 10 is denoted as B) |
| CCO[C@@H]1C[C@H]2C(=O)NC3(CCC3)C(=O)N(C)[C@@H](C3CCCC3)C(=O)N(CCC3CCCC3)[C@H](C(=O)N3CCOCC3)CC(=O)N(C)[C@@H](CC(C)C)C(=O)N[C@@H]([C@@H](C)CC)C(=O)N(C)CC(=O)N(C)[C@H]3CCCCN(C3=O)[C@@H](Cc3ccc(C(F)(F)F)cc3)C(=O)N(C)CC(=O)N[C@@H](CCc3cc(F)c(C(F)(F)F)c(F)c3)C(=O)N2C1 [PP0651] | 9.22 | B (a compound having 3 or more and less than 10 is denoted as B) | B (a compound having 3 or more and less than 10 is denoted as B) |
| CC[C@H](C)[C@@H]1NC(=O)[C@H](CC)N(C)C(=O)C[C@@H](C(=O)N(C)C)N(C)C(=O)[C@H](C2CCCC2)N(C)C(=O)C2(CCC2)NC(=O)[C@@H]2CCCCN2C(=O)[C@H](CCc2cc(F)c(C(F)(F)F)c(F)c2)NC(=O)CN(C)C(=O)[C@H](Cc2ccc(C(F)(F)F)cc2)N2CCCCC[C@@H](C2=O)N(C)C(=O)CN(C)C1=O [PP0655] | 8.72 | B (a compound having 3 or more and less than 10 is denoted as B) | B (a compound having 3 or more and less than 10 is denoted as B) |
| CC[C@H](C)[C@@H]1NC(=O)[C@H](CC)N(C)C(=O)C[C@@H](C(=O)N(C)C)N(C)C(=O)[C@H](C2CCCC2)N(C)C(=O)C2(CCC2)NC(=O)[C@@H]2C[C@@H](N3CCC(F)(F)CC3)CN2C(=O)[C@H](CCc2cc(F)c(C(F)(F)F)c(F)c2)NC(=O)CN(C)C(=O)[C@H](Cc2ccc(C(F)(F)F)cc2)N2CCCC[C@@H](C2=O)N(C)C(=O)CN(C)C1=O [PP0656] | 10.41 | C (A compound having a KD ratio of 0.1 or more and less than 3 is denoted as C) | C (A compound having a KD ratio of 0.1 or more and less than 3 is denoted as C) |
| CC[C@H](C)[C@@H]1NC(=O)[C@H](CC)N(C)C(=O)C[C@@H](C(=O)N(C)C)N(C)C(=O)[C@H](C2CCCC2)N(C)C(=O)C2(CCC2)NC(=O)[C@@H]2CCN2C(=O)[C@H](CCc2cc(F)c(C(F)(F)F)c(F)c2)NC(=O)CN(C)C(=O)[C@H](Cc2ccc(C(F)(F)F)cc2)N2CCCC[C@@H](C2=O)N(C)C(=O)CN(C)C1=O [PP0657] | 10.12 | B (a compound having 3 or more and less than 10 is denoted as B) | B (a compound having 3 or more and less than 10 is denoted as B) |
| CC[C@H](C)[C@@H]1NC(=O)[C@H](CC)N(C)C(=O)C[C@@H](C(=O)N(C)C)N(C)C(=O)[C@H](C2CCCC2)N(C)C(=O)C2(CCC2)NC(=O)[C@@H]2CCCCN2C(=O)[C@H](CCc2cc(F)c(C(F)(F)F)c(F)c2)NC(=O)CN(C)C(=O)[C@H](Cc2ccc(C(F)(F)F)cc2)N2CCCC[C@@H](C2=O)N(C)C(=O)CN(C)C1=O [PP0658] | 10.47 | C (A compound having a KD ratio of 0.1 or more and less than 3 is denoted as C) | B (a compound having 3 or more and less than 10 is denoted as B) |
| CC[C@H](C)[C@@H]1NC(=O)[C@H](CC)N(C)C(=O)C[C@@H](C(=O)N(C)C)N(CC)C(=O)[C@H](C2CCCC2)N(C)C(=O)C2(CCC2)NC(=O)[C@@H]2C[C@H](N3CCC(F)(F)CC3)CN2C(=O)[C@H](CCc2cc(F)c(C(F)(F)F)c(F)c2)NC(=O)CN(C)C(=O)[C@H](Cc2ccc(C(F)(F)F)cc2)N2CCCC[C@@H](C2=O)N(C)C(=O)CN(C)C1=O [PP0659] | 9.38 | B (a compound having 3 or more and less than 10 is denoted as B) | B (a compound having 3 or more and less than 10 is denoted as B) |
| CC[C@H](C)[C@@H]1NC(=O)[C@H](CC)N(C)C(=O)C[C@@H](C(=O)N(C)C)N(CC)C(=O)[C@H](C2CCCC2)N(C)C(=O)C2(CCC2)NC(=O)[C@@H]2CCN2C(=O)[C@H](CCc2cc(F)c(C(F)(F)F)c(F)c2)NC(=O)CN(C)C(=O)[C@H](Cc2ccc(C(F)(F)F)cc2)N2CCCC[C@@H](C2=O)N(C)C(=O)CN(C)C1=O [PP0660] | 9.54 | B (a compound having 3 or more and less than 10 is denoted as B) | B (a compound having 3 or more and less than 10 is denoted as B) |
| CC[C@H](C)[C@@H]1NC(=O)[C@H](CC)N(C)C(=O)C[C@@H](C(=O)N(C)C)N(CC)C(=O)[C@H](C2CCCC2)N(C)C(=O)C2(CCC2)NC(=O)[C@@H]2CCCCN2C(=O)[C@H](CCc2cc(F)c(C(F)(F)F)c(F)c2)NC(=O)CN(C)C(=O)[C@H](Cc2ccc(C(F)(F)F)cc2)N2CCCC[C@@H](C2=O)N(C)C(=O)CN(C)C1=O [PP0661] | 9.47 | C (A compound having a KD ratio of 0.1 or more and less than 3 is denoted as C) | B (a compound having 3 or more and less than 10 is denoted as B) |
| CC[C@H](C)[C@@H]1NC(=O)[C@H](CC(C)C)N(C)C(=O)C[C@@H](C(=O)N2CCOCC2)N(C)C(=O)[C@H](C2CCCC2)N(C)C(=O)C2(CCCC2)NC(=O)[C@@H]2[C@@H](O)CCN2C(=O)[C@H](CCc2cc(F)c(C(F)(F)F)c(F)c2)NC(=O)CN(C)C(=O)[C@H](Cc2ccc(C(F)(F)F)cc2)N2CCCCC[C@@H](C2=O)N(C)C(=O)CN(C)C1=O [PP0662] | 8.51 | B (a compound having 3 or more and less than 10 is denoted as B) | B (a compound having 3 or more and less than 10 is denoted as B) |
| CCO[C@@H]1C[C@H]2C(=O)NC3(CCC3)C(=O)N(C)[C@@H](C3CCCC3)C(=O)N(C)[C@H](C(=O)N(C)C)CC(=O)N(C)[C@@H](CC)C(=O)N[C@@H]([C@@H](C)CC)C(=O)N(C)CC(=O)N(C)[C@H]3CCCCCN(C3=O)[C@@H](Cc3ccc(C(F)(F)F)cc3)C(=O)N(C)CC(=O)N[C@@H](CCc3cc(F)c(C(F)(F)F)c(F)c3)C(=O)N2C1 [PP0663] | 9.55 | B (a compound having 3 or more and less than 10 is denoted as B) | B (a compound having 3 or more and less than 10 is denoted as B) |
| C=CC[C@H]1C(=O)N[C@@H]([C@@H](C)CC)C(=O)N(C)CC(=O)N(C)[C@H]2CCCCCN(C2=O)[C@@H](Cc2ccc(C(F)(F)F)cc2)C(=O)N(C)CC(=O)N[C@@H](CCc2cc(F)c(C(F)(F)F)c(F)c2)C(=O)N2C[C@H](OCC)C[C@H]2C(=O)NC2(CCC2)C(=O)N(C)[C@@H](C2CCCC2)C(=O)N(C)[C@H](C(=O)N(C)C)CC(=O)N1C [PP0665] | 9.62 | B (a compound having 3 or more and less than 10 is denoted as B) | B (a compound having 3 or more and less than 10 is denoted as B) |
